The text below walks through data of patent US12564568B2, “PKC pathway in Parkinson's Disease” (CEDARS-SINAI MEDICAL CENTER, priority 2018, dated 2026).

For data set [1], the system named is tyrosine hydroxylase (TH). The class given is cell-based, human. How it is done:
iPSC maintenance, mDA neuron differentiation and drug treatments: iPSCs were maintained in E8 media on Matrigel and passaged every 5 days at split ratios from 1:6 to 1:12 as needed using Versene. Only iPSCs between passage 17 and passage 35 were used in this study. For differentiation, iPSCs were grown to ˜80% confluency. Cells were singularized with Accutase (Millipore/Sigma #SCR005) (5 minutes at 37° C.) and plated onto Matrigel-coated 6-well plates (BD Biosciences) at 200K cells per cm^2 (for a fully confluent monolayer) in E8 media with 5 μM Y27632 (StemGent). 24 hours after plating, media was changed to Stage 1 (50% DMEM/F12, 50% Neurobasal, N2, B27-Vitamin A, LDN-193189 (LDN), SB431542 (SB)). Stage 1 media was changed each day (3 mL per well) for 3 days. Media was next switched to Stage 2 (50% DMEM/F12, 50% Neurobasal, N2, B27-Vitamin A, LDN, SB, Purmorphamine (PMN), CHIR99021 (CHIR), Sonic hedgehog (SHH), Fibroblast Growth Factor 8 (FGF8)). Stage 2 media was changed each day (3 mL per well) for 4 days. Media was then switched to Stage 3 (50% DMEM/F12, 50% Neurobasal, N2, B27-Vitamin A, LDN, CHIR, all-trans-Retinoic acid (ATRA)). Stage 3 media was changed each day (3 mL per well) for 4 days. Finally, media was switched to Stage 4 (50% DMEM/F12, 50% Neurobasal, N2, B27+Vitamin A, Brain-Derived Neurotrophic Factor (BDNF), Glial Cell Line-Derived Neurotrophic Factor (GDNF), dibutyryl cyclic-AMP sodium salt (dbCAMP), L-Ascorbic Acid (AA), γ-Secretase inhibitor (DAPT), CHIR, Transforming Growth Factor beta-3 (TGF β3)). Stage 4 media was changed each day (3 mL per well) for 3 days. On day 15, cells were dissociated to single cells using Accutase (20 mins at 37° C.) and gently lifted. Dissociated cells were resuspended in Maturation Medium (50% DMEM/F12, 50% Neurobasal, N2, B27+Vitamin A, BDNF, GDNF, dbCAMP, AA, DAPT, TGF3) plus 5 μM Y27632 and reseeded onto Matrigel-coated 6-well plates at 200 k/cm^2 in 1 mL total volume or onto Matrigel-coated L-glass coverslips in a 24-well plate at 200 k/50 μL drop. Cells were allowed to attach for 45 mins at 37° C. and Maturation Medium was then added to final volumes of 3 mL per well for 6-well plates or 1.5 mL per well for 24-well plates with coverslips. A full medium change was performed 48-hours post-seeding and medium was changed every 3 days until day 30. For drug treatments, cells at day-27 were fed with Maturation Medium containing the indicated drug and cells were analyzed at day 30.
Analytical flow cytometry: Day-30 cultures in 6-well plates were washed once in phosphate buffered saline (PBS) then 1 mL Accutase was added to each well and incubated for 25 mins at 37° C. or until the cells fully lifted. Cells were washed with an additional 2 mL Maturation Medium and very gently triturated until large clumps were no longer visible at which point cells were pelleted by centrifugation (1500 RPM for 3 mins). Cells were gently resuspended in 4% paraformaldehyde (PFA) in PBS and allowed to fix for 10-15 mins at room temperature. Fixed single cells were permeabilized using 1% Trition X-100 (Sigma-Aldrich) and stained using primary antibodies against TH (1:500 Immunostar, 22941), α-synuclein (1:1000 Abcam, ab138501), and MAP2ab (1:1000 Sigma-Aldrich, M1406), or isotype controls at same dilution (Cell Signaling IgG Isotype Control rabbit #3900S and mouse #5415S). Secondary antibodies (Alexa Fluor 488 and 594 donkey anti-mouse and donkey anti-rabbit, Invitrogen) were used at 1:500. Stained samples were quantified on an LSR Fortessa cytometer using BD FACSDiva software.
Immunocytochemistry and imaging: mDA neuron cultures were plated on L-glass coverslips and grown as above. Day 30 neurons were fixed in 4% PFA at room temperature for 10-15 mins. […]

For the next data set, the system named is LAMP1. The experiment in a line: LAMP1 level in day 30 mDA cultures after PEP005 (western blot). The class given is cell-based, human. (In western blotting, separated proteins are transferred to a membrane and probed.)
In a further data set the test system is LC3. Kind of data set: LC3 level in day 30 DaNs after PEP treatment (western blot). It counts as cell-based, human. The following applies: PD cells.
Data set [2] can be described thus: In vitro blood plasma binding, mini pig. The class given is in vitro ADME. The source says:
This may complicate IV delivery.

The nature of data set [3]: Dose ranging study in rat. It counts as in vivo. Particulars: rats, for 7 days. How it is done: For dose ranging studies in rat and mini-pig. Repeated doses up to 15 ug/kg/day for 7 days were tolerated in rats, 5 ug/kg in pigs
The nature of data set [4]: Repeat dose tox study in rats. The class given is in vivo, rat. Particulars: up to 10 ug/kg/day for 7 days, IV tail vein injection. The procedure:
In a repeat dose tox study in rats—animals were given up to 10 ug/kg/day for 7 days by IV tail vein injection. […] In a repeat dose tox study in mini-pigs—animals were given up to 5 ug/kg/day IV approximately 1×/week.

The subject of another data set is PKC C1 domains. Particulars: cited from earlier work.

As for `C/C=C(/C)C(=O)O[C@H]1C(C)=C[C@]23C(=O)[C@@H](C=C(CO)[C@@H](O)[C@]12O)[C@H]1[C@@H](C[C@H]3C)C1(C)C` [PEP005, ingenol-3-angelate], the TH by immunostaining entry in data set [1] (PEP005-treated mDA cultures) is given as “enhanced”. Further, in data set [1] (both control and PD cultures, 3 days treatment from day 27, listed as PEP), the “amount of TH enzyme present” value is “increase”. Moreover, the “number of TH neurons (flow cytometry)” value in data set [1] (d30 mDA cultures, PEP005 72 hrs) is recorded as “did not result in an increased number”. The “level of TH expression in neurons (flow cytometry)” value in data set [1] (d30 mDA cultures, PEP005 72 hrs, relative to untreated) is recorded as “significantly higher levels”. Moreover, the LAMP1 protein entry with LAMP1 (PD cells treated with PEP005) is reported as “does not appear to be replicated”; with LAMP1 (PD cells treated with PEP005, listed as PEP), “neither LAMP1 nor LC3 respond”; with LAMP1 (control and PD cells / all iPSC lines, 1 μM PEP005 for 3 days), “increase”; with LAMP1 (control cells treated with PEP005), “increase”. Besides, in the data set on LC3, the LC3 response result is listed as “neither LAMP1 nor LC3 respond”. The plasma binding entry in data set [2] was “highly efficient plasma binding”. Moreover, the tolerated repeated dose entry in data set [3] was “up to 15 ug/kg/day”. In addition, the tolerability result in data set [4] is listed as “well tolerated”. In the data set with PKC C1 domains, the “affinity for PKC C1 domains” value was “subnanomolar”.
